# PubChem BioAssay (NCI)
#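 Each compound was tested at five concentrations against cells in 96-well plates for 48 hours. TGI marks complete inhibition of growth.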
# Columns and labels:
# Assay in all cases: NCI tumour cell line growth inhibition, 48 h
# [1] = tested on: 786-0 renal
# [2] = tested on: A498 renal
# [3] = tested on: A549 NSCLC
# [4] = tested on: ACHN renal
# [5] = tested on: BT-549 breast
# [6] = tested on: CAKI-1 renal
# [7] = tested on: CCRF-CEM leukemia
# [8] = tested on: COLO 205 colon
# [9] = tested on: DU-145 prostate
# [10] = tested on: EKVX NSCLC
# [11] = tested on: HCC-2998 colon
# [12] = tested on: HCT-116 colon
# [13] = tested on: HCT-15 colon
# [14] = tested on: HL-60(TB) leukemia
# [15] = tested on: HOP-62 NSCLC
# [16] = tested on: HOP-92 NSCLC
# [17] = tested on: HS 578T breast
# [18] = tested on: HT29 colon
# [19] = tested on: IGROV1 ovarian
# [20] = tested on: K-562 leukemia
# [21] = tested on: KM12 colon
# [22] = tested on: LOX IMVI melanoma
# [23] = tested on: M14 melanoma
# [24] = tested on: MALME-3M melanoma
# [25] = tested on: MCF7 breast
# [26] = tested on: MDA-MB-231 breast
# [27] = tested on: MDA-MB-435
# [28] = tested on: MDA-N
# [29] = tested on: MOLT-4 leukemia
# [30] = tested on: NCI-H226 lung
# [31] = tested on: NCI-H23 lung
# [32] = tested on: NCI-H460 lung
# [33] = tested on: NCI-H522 lung
# [34] = tested on: NCI/ADR-RES ovarian
# [35] = tested on: OVCAR-3 ovarian
# [36] = tested on: OVCAR-4 ovarian
# [37] = tested on: OVCAR-5 ovarian
# [38] = tested on: OVCAR-8 ovarian
# [39] = tested on: PC-3 prostate
# [40] = tested on: RPMI-8226 leukemia
# [41] = tested on: RXF 393 renal
# [42] = tested on: SF-268 CNS
# [43] = tested on: SF-295 CNS
# [44] = tested on: SF-539 CNS
# [45] = tested on: SK-MEL-2 melanoma
# [46] = tested on: SK-MEL-28 melanoma
# [47] = tested on: SK-MEL-5 melanoma
# [48] = tested on: SK-OV-3 ovarian
# [49] = tested on: SN12C renal
# [50] = tested on: SNB-19 CNS
# [51] = tested on: SNB-75 CNS
# [52] = tested on: SR leukemia
# [53] = tested on: SW-620 colon
# [54] = tested on: T-47D breast
# [55] = tested on: TK-10 renal
# [56] = tested on: U251 CNS
# [57] = tested on: UACC-257 melanoma
# [58] = tested on: UACC-62 melanoma
# [59] = tested on: UO-31 renal
structure (smiles),measurement,setting,value
O=C1/C(=C/c2ccc([N+](=O)[O-])cc2)CNC/C1=C\c1ccc([N+](=O)[O-])cc1,TGI,[1],3.18 µM
same,TGI,[2],37.3 µM
same,TGI,[3],> 70.7 µM
same,TGI,[4],25.3 µM
same,TGI,[5],7.73 µM
same,TGI,[6],4.67 µM
same,TGI,[7],2.97 µM
same,TGI,[8],28.3 µM
same,TGI,[9],35.6 µM
same,TGI,[10],33.9 µM
same,TGI,[11],23.4 µM
same,TGI,[12],1.97 µM
same,TGI,[13],3.06 µM
same,TGI,[14],10 µM
same,TGI,[15],15.9 µM
same,TGI,[16],59 µM
same,TGI,[17],> 64.9 µM
same,TGI,[18],3.57 µM
same,TGI,[19],4.78 µM
same,TGI,[20],1.21 µM
same,TGI,[21],4.41 µM
same,TGI,[22],5.93 µM
same,TGI,[23],28.7 µM
same,TGI,[24],> 100 µM
same,TGI,[25],> 100 µM
same,TGI,[26],20.2 µM
same,TGI,[27],23.9 µM
same,TGI,[28],25.5 µM
same,TGI,[29],> 38 µM
same,TGI,[30],> 57.5 µM
same,TGI,[31],9.77 µM
same,TGI,[32],12.7 µM
same,TGI,[33],9.4 µM
same,TGI,[34],26.3 µM
same,TGI,[35],9.61 µM
same,TGI,[36],> 50.9 µM
same,TGI,[37],> 69.6 µM
same,TGI,[38],8.36 µM
same,TGI,[39],21.7 µM
same,TGI,[40],2.75 µM
same,TGI,[41],25.1 µM
same,TGI,[42],4.47 µM
same,TGI,[43],34.1 µM
same,TGI,[44],5.59 µM
same,TGI,[45],> 100 µM
same,TGI,[46],5.49 µM
same,TGI,[47],25.3 µM
same,TGI,[48],> 100 µM
same,TGI,[49],15.5 µM
same,TGI,[50],10.6 µM
same,TGI,[51],17 µM
same,TGI,[52],1.15 µM
same,TGI,[53],1.78 µM
same,TGI,[54],> 81.3 µM
same,TGI,[55],> 95.8 µM
same,TGI,[56],1.67 µM
same,TGI,[57],> 100 µM
same,TGI,[58],29.5 µM
same,TGI,[59],19.6 µM
C=CC/C(C(=O)OC)=C(/C(=O)OC)N(CCC)CCC,TGI,[1],> 100 µM
same,TGI,[2],> 100 µM
same,TGI,[3],> 100 µM
same,TGI,[4],> 100 µM
same,TGI,[5],> 100 µM
same,TGI,[6],> 100 µM
same,TGI,[7],> 100 µM
same,TGI,[8],> 100 µM
same,TGI,[9],> 100 µM
same,TGI,[10],> 100 µM
same,TGI,[11],> 100 µM
same,TGI,[12],> 100 µM
same,TGI,[13],> 100 µM
same,TGI,[14],64.4 µM
same,TGI,[15],> 100 µM
same,TGI,[16],> 100 µM
same,TGI,[17],> 100 µM
same,TGI,[18],> 100 µM
same,TGI,[19],> 100 µM
same,TGI,[20],> 100 µM
same,TGI,[21],> 100 µM
same,TGI,[22],> 100 µM
same,TGI,[23],> 100 µM
same,TGI,[24],> 100 µM
same,TGI,[25],> 100 µM
same,TGI,[26],> 100 µM
same,TGI,[27],> 100 µM
same,TGI,[28],> 100 µM
same,TGI,[29],> 100 µM
same,TGI,[30],> 100 µM
same,TGI,[31],> 100 µM
same,TGI,[32],> 100 µM
same,TGI,[33],> 100 µM
same,TGI,[34],> 100 µM
same,TGI,[35],> 100 µM
same,TGI,[36],> 100 µM
same,TGI,[37],> 100 µM
same,TGI,[38],> 100 µM
same,TGI,[39],> 100 µM
same,TGI,[40],> 100 µM
same,TGI,[41],> 100 µM
same,TGI,[42],> 100 µM
same,TGI,[43],> 100 µM
same,TGI,[44],> 100 µM
same,TGI,[45],> 100 µM
same,TGI,[46],> 100 µM
same,TGI,[47],> 100 µM
same,TGI,[48],> 100 µM
same,TGI,[49],> 100 µM
same,TGI,[50],> 100 µM
same,TGI,[51],> 100 µM
same,TGI,[52],55.3 µM
same,TGI,[53],> 100 µM
same,TGI,[54],> 100 µM
same,TGI,[55],> 100 µM
same,TGI,[56],> 100 µM
same,TGI,[57],> 100 µM
same,TGI,[58],> 100 µM
same,TGI,[59],> 100 µM
